Test results from patent US4101381A, “Method and reagent for the determination of substances forming hydrogen peroxide” (Boehringer Mannheim GmbH, priority 1976, dated 1978).
In brackets after ≈: the same amount, converted by molar mass. Where two headings read alike, the source gives them in different places.

Tests used:
[1] = solubility in an aqueous medium at pH 1; format: physicochemical
[2] = prior-art method; cited from earlier work

solubility ([1]; read-out: solubility) [mg/mL] | solubility ([1]; read-out: solubility in an aqueous medium) [mg/mL] | SMILES | stability [2]
6 | – | Cn1c(=NN)sc2cc(S(=O)(=O)O)ccc21 [MBTH sulfonate, 3-methyl-2-(sulfonyl)-benzothiazolonehydrazone] | –
– | 48 (≈ 268 mM) | Cn1c(=NN)sc2ccccc21 [MBTH, 3-methylbenzothiazolonehydrazone] | low stability
